Test results reported in patent publication US8569270B2, “Diphenyl sulfide derivatives and medicines containing same as active ingredient” (Kyorin Pharmaceutical Co., Ltd., priority 2009, dated 2013).
Each block holds one molecule with its values, some of them ahead of it.

Experiments:
Human S1P3 receptor = target: T1, Human S1P3 receptor (Homo sapiens, UniProt Q99500); test: Suppression of S1P-induced cellular calcium mobilization in human S1P3 receptor-expression CHO cells (Schild plot); type: cell-based; conditions: Schild plot of S1P EC50 shift; test compound 125 nM, 1.25 μM, 12.5 μM; hS1P3 CHO cells; read-out: S1P3 dissociation constant Kd value
T1 construct: expressed in transfected cells; host or cells: CHO cells (Geneticin-selected)
Experimental: Suppression Effect of Test Compound Against Cellular Calcium Mobilization of Human S1P3 Receptor-Expression Cell by S1P (Sphingosine 1-Phosphoric Acid)
Human S1P3 receptor-expression CHO cells were subcultured in a Ham's F-12 culture medium containing 10% fetal bovine serum, and 300 μg/mL of Geneticin. The human S1P3 receptor-expression CHO cells were subjected to 0.25% trypsinization, then recovered from the dish, and floated in a Ham's F-12 culture medium containing 10% fetal bovine serum, and 300 μg/mL of Geneticin. After that, the human S1P3 receptor-expression CHO cells were disseminated into a 96-well black clear bottom plate (BD Falcon Biocoat) so that 7×10^4/100 μL/well of the human S1P3 receptor-expression CHO cells were disseminated. And then, the human S1P3 receptor-expression CHO cells were cultivated for one night at 37° C. under 5% CO2. The next day, the wells were washed 3 times with 100 μL of PBS containing 0.1% fatty acid-free bovine serum albumin (BSA). The culture medium was exchanged with a Ham's F-12 culture medium containing 0.1% BSA, and then starved of serum for 6 hours in an CO2 incubator at 37° C.
The culture medium was thrown away after the 6 hours. Then, 50 μL/well of a Fluo3 loading buffer was added, and the cultures were cultivated for further 1 hour. The Fluo3 loading buffer was prepared as follows. First, equal amounts of Fluo3-AM (Dojindo) and pluronic F-127 (20% DMSO solution, invitrogen) were mixed. Next, the mixture of Fluo3-AM and pluronic F-127 was added to a Hanks-HEPES buffer (balanced salt solution containing 20 mM HEPES (pH, 7.4), 0.1% BSA (fatty acid-free), and 2.5 mM probenecid) to form a Fluo3 loading buffer having a final Fluo3-AM concentration of 4
After incubating for 1 hour, the cultures were washed 3 times with 100 μL of the Hanks-HEPES buffer. Then, 100 μL of the same buffer in which a test compound (125 nM, 1.25 μM, 12.5 μM) or DMSO had been dissolved was added to the cultures, and then incubated for 30 minutes at 37° C. in a microplate spectrophotofluorometer (FLEX Station) (Molecular Device Co., Ltd.). Then, 25 μL of S1P prepared at 5 times the concentration of the final concentration by serial dilution (final concentration of 0.1 nM, 1 nM, 10 nM, 100 nM, and 1 μM) was added, and the fluorescence based on the Fluo3 due to calcium mobilization was detected and measured at an excitation wavelength of 485 nm and a detection wavelength of 525 nm using the same apparatus. Based on the measurement data, the increase in fluorescence was calculated by subtracting the minimum fluorescence intensity from the maximum fluorescence intensity. The measured increase in fluorescence was used to perform a curve approximation of the relationship between the S1P concentration and the increase in fluorescence using PRISM 4 software (GraphPad). Based on the results, the EC50 value of the compound-untreated and the EC50 value of the compound-treated at each concentration were calculated. Schild Plot analysis was performed based on these values to determine dissociation constant Kd value. In Table 1, 1,000 nmol/L>Kd value≧100 nmol/L is indicated as “+,” 100 nmol/L>Kd value≧10 nmol/L is indicated as “++,” 10 nmol/L>Kd value≧1 nmol/L is indicated as “+++,” and 1 nmol/L>Kd value is indicated as “++++.”

IL-1β production = test: LPS induced sepsis model, IL-1β in tissue by ELISA; type: in vivo, C57BL/6J mouse; conditions: 10 mg/kg i.v. twice (15 min before and 2 h after LPS), 18 h after LPS; for Suppression Rate for Lung: mouse lung; for Suppression Rate for Mesenteric Lymph Nodes: mouse mesenteric lymph nodes
Experimental: The experiment was carried out with reference to the method described in Non-Patent Literature 5 (F. Nissen et al., Nature, 452, 654 (2008)). A solution of 1 mg/ml LPS (lipopolysaccharide) in physiological saline was intraperitoneally administered (10 ml/kg) to a C57BL/6J mouse (Charles River, male, 7 to 8 weeks). The test compound in an amount of 10 mg/kg was intravenously administered twice, 15 minutes before LPS administration and 2 hours after LPS administration. The mouse was dissected 18 hours after LPS administration, and the mesenteric lymph nodes and lungs were excised. The mesenteric lymph nodes were dissolved in 200 μl and the lungs in 1 ml of a dissolving buffer (30 mM Tris (pH7.4), 150 mM NaCl, 0.1% TritonX-100, 2 mM CaCl2, and 2 mM MgCl2). Non-dissolved matter was removed by centrifugal separation. The IL-1β in the tissue solutions was measured using an IL-1β ELISA Kit (Thermo Co., Ltd.). In Table 2, compounds having a suppression rate of 50% or more are indicated as “+++,” compounds having a suppression rate of 50%>suppression rate≧30% are indicated as “++,” and compounds having a suppression rate of 30%>suppression rate 20% are indicated as “+.”
The suppression rate was calculated using the following calculation equation. a=(1−X/Y)×100 [Equation 1] X: IL-1β PRODUCTION AMOUNT WHEN, 10 mg/kg OF TEST COMPOUND WAS ADMINISTERED TO RESPECTIVE TISSUE Y: IL-1β PRODUCTION AMOUNT WHEN TEST COMPOUND WAS NOT ADMINISTERED TO RESPECTIVE TISSUE a: SUPPRESSION RATE (%)

T1 sequence (Q99500 whole entry): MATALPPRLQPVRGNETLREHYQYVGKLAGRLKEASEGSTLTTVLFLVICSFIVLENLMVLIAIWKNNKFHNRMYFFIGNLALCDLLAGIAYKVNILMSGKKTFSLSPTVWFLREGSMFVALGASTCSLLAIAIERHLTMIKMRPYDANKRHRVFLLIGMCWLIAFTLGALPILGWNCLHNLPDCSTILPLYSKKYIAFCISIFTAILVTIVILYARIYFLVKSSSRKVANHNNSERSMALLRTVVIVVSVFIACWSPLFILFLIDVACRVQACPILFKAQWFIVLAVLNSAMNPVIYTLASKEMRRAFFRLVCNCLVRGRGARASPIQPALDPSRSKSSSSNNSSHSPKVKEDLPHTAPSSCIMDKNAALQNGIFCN

Structure (SMILES): C[C@](N)(CCc1ccc(Sc2cc(C3CC3)ccc2O)cc1Cl)COP(=O)(O)O [Example 5, (S)-2-amino-4-[2-chloro-4-(5-cyclopropyl-2-hydroxyphenylthio)phenyl]-2-methylbutylphosphoric acid monoester]
Kd (Human S1P3 receptor): 1 to 10 nM

Structure (SMILES): COc1ccc(O)c(Sc2ccc(CC[C@](C)(N)COP(=O)(O)O)c(Cl)c2)c1 [Example 6, (S)-2-amino-4-[2-chloro-4-(2-hydroxy-5-methoxyphenylthio)phenyl]-2-methylbutylphosphoric acid monoester]
Kd (Human S1P3 receptor): 100 to 1000 nM

Structure (SMILES): CCOc1ccc(O)c(Sc2ccc(CC[C@](C)(N)COP(=O)(O)O)c(Cl)c2)c1 [Example 7, (S)-2-amino-4-[2-chloro-4-(5-ethoxy-2-hydroxyphenylthio)phenyl]-2-methylbutylphosphoric acid monoester]
Kd (Human S1P3 receptor): 10 to 100 nM

Structure (SMILES): C[C@](N)(CCc1ccc(Sc2cc(OCc3ccccc3)ccc2O)cc1Cl)COP(=O)(O)O [Example 9, (S)-2-amino-4-[4-(5-benzyloxy-2-hydroxyphenylthio)-2-chlorophenyl]-2-methylbutylphosphoric acid monoester]
Kd (Human S1P3 receptor): 1 to 10 nM

Structure (SMILES): C[C@](N)(CCc1ccc(Sc2cc(Cl)ccc2O)cc1Cl)COP(=O)(O)O [Example 10, (S)-2-amino-4-[2-chloro-4-(5-chloro-2-hydroxyphenylthio)phenyl]-2-methylbutylphosphoric acid monoester]
Kd (Human S1P3 receptor): 10 to 100 nM

Structure (SMILES): C[C@](N)(CCc1ccc(Sc2cc(C(F)(F)F)ccc2O)cc1Cl)COP(=O)(O)O [Example 11, (S)-2-amino-4-[2-chloro-4-(2-hydroxy-5-trifluoromethylphenylthio)phenyl]-2-methylbutylphosphoric acid monoester]
Kd (Human S1P3 receptor): 1 to 10 nM
Suppression Rate for Lung (IL-1β production): ++ (50%>suppression rate≧30%)
Suppression Rate for Mesenteric Lymph Nodes (IL-1β production): ++ (50%>suppression rate≧30%)

Structure (SMILES): C=CC[C@](N)(CCc1ccc(Sc2cc(C(F)(F)F)ccc2O)cc1Cl)COP(=O)(O)O [Example 12, (R)-2-allyl-2-amino-4-[2-chloro-4-(2-hydroxy-5-trifluoromethylphenylthio)phenyl]-butylphosphoric acid monoester]
Kd (Human S1P3 receptor): < 1 nM
Suppression Rate for Lung (IL-1β production): ++ (50%>suppression rate≧30%)
Suppression Rate for Mesenteric Lymph Nodes (IL-1β production): + (30%>suppression rate 20%)

Structure (SMILES): C[C@](N)(CCc1ccc(Sc2ccccc2O)cc1Cl)COP(=O)(O)O [Example 14, (S)-2-amino-4-[2-chloro-4-(2-hydroxyphenylthio)phenyl]-2-methylbutylphosphoric acid monoester]
Kd (Human S1P3 receptor): 10 to 100 nM

Structure (SMILES): CC(=O)c1ccc(O)c(Sc2ccc(CC[C@](C)(N)COP(=O)(O)O)c(Cl)c2)c1 [Example 16, (S)-4-[4-(5-acetyl-2-hydroxyphenylthio)-2-chlorophenyl]-2-amino-2-methylbutylphosphoric acid monoester]
Kd (Human S1P3 receptor): 10 to 100 nM

Structure (SMILES): C[C@](N)(CCc1ccc(Sc2cc(C(F)(F)F)ccc2O)cc1Cl)CCP(=O)(O)O [Example 17, (S)-3-amino-5-[2-chloro-4-(2-hydroxy-5-trifluoromethylphenylthio)phenyl]-3-methylpentylphosphonic acid]
Kd (Human S1P3 receptor): 100 to 1000 nM

Structure (SMILES): CCC[C@](N)(CCc1ccc(Sc2cc(OCc3ccccc3)ccc2O)cc1Cl)COP(=O)(O)O [Example 23, (S)-2-amino-4-[4-(5-benzyloxy-2-hydroxyphenylthio)-2-chlorophenyl]-2-propylbutylphosphoric acid monoester]
Kd (Human S1P3 receptor): 1 to 10 nM

More lines, now with the values ahead:

Kd (Human S1P3 receptor): 10 to 100 nM
Structure (SMILES): Cc1ccc(O)c(Sc2ccc(CC[C@](C)(N)COP(=O)(O)O)c(Cl)c2)c1 [Example 1, (S)-2-amino-4-[2-chloro-4-(2-hydroxy-5-methylphenylthio)phenyl]-2-methylbutylphosphoric acid monoester]

Kd (Human S1P3 receptor): 10 to 100 nM
Structure (SMILES): CCc1ccc(O)c(Sc2ccc(CC[C@](C)(N)COP(=O)(O)O)c(Cl)c2)c1 [Example 2, (S)-2-amino-4-[2-chloro-4-(5-ethyl-2-hydroxyphenylthio)phenyl]-2-methylbutylphosphoric acid monoester]

Kd (Human S1P3 receptor): 10 to 100 nM
Structure (SMILES): CCCc1ccc(O)c(Sc2ccc(CC[C@](C)(N)COP(=O)(O)O)c(Cl)c2)c1 [Example 3, (S)-2-amino-4-[2-chloro-4-(2-hydroxy-5-propylphenylthio)phenyl]-2-methylbutylphosphoric acid monoester]

Kd (Human S1P3 receptor): 1 to 10 nM
Structure (SMILES): CC(C)c1ccc(O)c(Sc2ccc(CC[C@](C)(N)COP(=O)(O)O)c(Cl)c2)c1 [Example 4]

Kd (Human S1P3 receptor): 10 to 100 nM
Structure (SMILES): CC(C)Oc1ccc(O)c(Sc2ccc(CC[C@](C)(N)COP(=O)(O)O)c(Cl)c2)c1 [Example 8, (S)-2-amino-4-[2-chloro-4-(2-hydroxy-5-isopropoxyphenylthio)phenyl]-2-methylbutylphosphoric acid monoester]

Kd (Human S1P3 receptor): 1 to 10 nM
Structure (SMILES): CCCc1ccc(O)c(Sc2ccc(CC[C@@](N)(CCC)COP(=O)(O)O)c(Cl)c2)c1 [Example 18, (S)-2-amino-4-[2-chloro-4-(2-hydroxy-5-propylphenylthio)phenyl]-2-propylbutylphosphoric acid monoester]

Kd (Human S1P3 receptor): 1 to 10 nM
Structure (SMILES): CCC[C@](N)(CCc1ccc(Sc2cc(C(C)C)ccc2O)cc1Cl)COP(=O)(O)O [Example 19, (S)-2-amino-4-[2-chloro-4-(2-hydroxy-5-isopropylphenylthio)phenyl]-2-propylbutylphosphoric acid monoester]

Kd (Human S1P3 receptor): 1 to 10 nM
Structure (SMILES): CCC[C@](N)(CCc1ccc(Sc2cc(C3CC3)ccc2O)cc1Cl)COP(=O)(O)O [Example 20, (S)-2-amino-4-[2-chloro-4-(5-cyclopropyl-2-hydroxyphenylthio)phenyl]-2-propylbutylphosphoric acid monoester]

Kd (Human S1P3 receptor): < 1 nM
Structure (SMILES): CCC[C@](N)(CCc1ccc(Sc2cc(C(C)(C)C)ccc2O)cc1Cl)COP(=O)(O)O [Example 21, (S)-2-amino-4-[4-(5-t-butyl-2-hydroxyphenylthio)-2-chlorophenyl]-2-propylbutylphosphoric acid monoester]
